Test results as given in US20070049593A1 (priority 2004, published 2007).
Counter-ions that a name gives are not always drawn. Like-named read-outs stand apart in the source and are kept apart here.

Biological target: T1, HCV polymerase (Hepatitis C virus genotype 1b, UniProt P26663)
T1 construct: a region encoding NS5B (J Virol 1991 March, 65(3), 1105-13, 544 amino acids after deletion of 47 amino acids on the C-terminal); 6xHis (C); made in house; host or cells: Escherichia coli
Experiment: biochemical
Parameters: species or system HCV BK strain
How it was run: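 Recombinant HCV BK-strain NS5B (C-terminal 47 aa deleted, His6-tagged, E. coli), 0.5 μg/ml, run with 5 μg/ml in vitro-transcribed RNA template (polyU/3′X), ATP/GTP/CTP 50 μM, UTP 2 μM plus [3H]UTP, pH 7.5, 25° C, 90 min. TCA-precipitated RNA counted by scintillation; IC50 from activity with vs without compound.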

T1 sequence (P26663 2420-2963): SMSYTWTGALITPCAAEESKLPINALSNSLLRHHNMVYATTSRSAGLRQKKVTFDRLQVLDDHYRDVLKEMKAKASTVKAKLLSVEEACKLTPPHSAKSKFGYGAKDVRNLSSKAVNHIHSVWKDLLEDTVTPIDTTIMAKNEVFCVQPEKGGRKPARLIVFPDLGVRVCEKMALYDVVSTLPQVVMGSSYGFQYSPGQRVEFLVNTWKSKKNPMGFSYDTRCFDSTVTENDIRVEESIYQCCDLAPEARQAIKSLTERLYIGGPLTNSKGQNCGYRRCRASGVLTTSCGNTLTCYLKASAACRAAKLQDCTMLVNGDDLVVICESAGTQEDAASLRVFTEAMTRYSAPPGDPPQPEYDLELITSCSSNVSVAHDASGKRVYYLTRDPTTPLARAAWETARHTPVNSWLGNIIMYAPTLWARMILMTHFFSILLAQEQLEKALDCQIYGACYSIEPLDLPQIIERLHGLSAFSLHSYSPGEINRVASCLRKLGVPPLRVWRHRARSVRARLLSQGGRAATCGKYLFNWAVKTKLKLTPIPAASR

In the case of COC(=O)N1CCC(N(C)CCN2CCn3c(c(C4CCCCC4)c4ccc(C(=O)O)cc43)-c3ccccc32)CC1 [Example 1-281, 13-cyclohexyl-5-{2-[N-(1-methoxycarbonylpiperidin-4-yl)-N-methylamino]ethyl}-6,7-dihydro-5H-benzo[5,6][1,4]diazepino[7,1-a]indole-10-carboxylic acid monohydrochloride], the IC50 is reported as under 100 nM.

Compound CN1CCC(N(C)CCN2CCn3c(c(C4CCCCC4)c4ccc(C(=O)O)cc43)-c3ccccc32)CC1 [Example 1-282, 13-cyclohexyl-5-{2-[N-methyl-N-(1-methylpiperidin-4-yl)amino]ethyl}-6,7-dihydro-5H-benzo[5,6][1,4]diazepino[7,1-a]indole-10-carboxylic acid dihydrochloride] has an IC50 of under 100 nM.

Compound CN(CCN1CCn2c(c(C3CCCCC3)c3ccc(C(=O)O)cc32)-c2ccccc21)C1CCOCC1 [Example 1-283, 13-cyclohexyl-5-{2-[N-methyl-N-(tetrahydropyran-4-yl)amino]ethyl}-6,7-dihydro-5H-benzo[5,6][1,4]diazepino[7,1-a]indole-10-carboxylic acid] has an IC50 of under 100 nM.

With CN1CCC(N(C)CCN2CCn3c(c(C4CCCCC4)c4ccc(C(=O)O)cc43)-c3ccccc32)C1 (centres unmarked) [Example 1-284, 13-cyclohexyl-5-{2-[N-methyl-N-(1-methylpyrrolidin-3-yl)amino]ethyl}-6,7-dihydro-5H-benzo[5,6][1,4]diazepino[7,1-a]indole-10-carboxylic acid dihydrochloride] the IC50 was under 100 nM.

In the case of CN(CCN1CCn2c(c(C3CCCCC3)c3ccc(C(=O)O)cc32)-c2ccccc21)C1CCNC1 (centres unmarked) [Example 1-285, 13-cyclohexyl-5-{2-[N-methyl-N-(pyrrolidin-3-yl)amino]ethyl}-6,7-dihydro-5H-benzo[5,6][1,4]diazepino[7,1-a]indole-10-carboxylic acid dihydrochloride], the IC50 is reported as under 100 nM.

In the case of CCN1CCCN(CCN2CCn3c(c(C4CCCCC4)c4ccc(C(=O)O)cc43)-c3ccccc32)CC1 [Example 1-286, 13-cyclohexyl-5-[2-(4-ethyl-1,4-diazepan-1-yl)ethyl]-6,7-dihydro-5H-benzo[5,6][1,4]diazepino[7,1-a]indole-10-carboxylic acid trihydrochloride], the IC50 is reported as under 100 nM.

Compound Cc1ccc2c(c1)N(CCC1CCCCN1C)CCn1c-2c(C2CCCCC2)c2ccc(C(=O)O)cc21 (centres unmarked) [Example 1-287, 13-cyclohexyl-3-methyl-5-[2-(1-methylpiperidin-2-yl)ethyl]-6,7-dihydro-5H-benzo[5,6][1,4]diazepino[7,1-a]indole-10-carboxylic acid dihydrochloride] has an IC50 of under 100 nM.

For CCN1CCCCC1CCN1CCn2c(c(C3CCCCC3)c3ccc(C(=O)O)cc32)-c2ccc(C)cc21 (centres unmarked) [Example 1-288, 13-cyclohexyl-5-[2-(1-ethylpiperidin-2-yl)ethyl]-3-methyl-6,7-dihydro-5H-benzo[5,6][1,4]diazepino[7,1-a]indole-10-carboxylic acid dihydrochloride], the IC50 was under 100 nM.

For CSc1ccc2c(c1)N(CCN1CCCCCC1)CCn1c-2c(C2CCCCC2)c2ccc(C(=O)O)cc21 [Example 1-289, 5-[2-(azepan-1-yl)ethyl]-13-cyclohexyl-3-methylsulfanyl-6,7-dihydro-5H-benzo[5,6][1,4]diazepino[7,1-a]indole-10-carboxylic acid dihydrochloride], the IC50 was under 100 nM.

For CCC1CN(CCN2CCn3c(c(C4CCCCC4)c4ccc(C(=O)O)cc43)-c3ccc(Cl)cc32)CCO1 (centres unmarked) [Example 1-290, 3-chloro-13-cyclohexyl-5-[2-(2-ethylmorpholin-4-yl)ethyl]-6,7-dihydro-5H-benzo[5,6][1,4]diazepino[7,1-a]indole-10-carboxylic acid dihydrochloride], the IC50 was under 100 nM.

For CCC1CN(CCN2CCn3c(c(C4CCCCC4)c4ccc(C(=O)O)cc43)-c3ccc(C)cc32)CCO1 (centres unmarked) [Example 1-291, 13-cyclohexyl-5-[2-(2-ethylmorpholin-4-yl)ethyl]-3-methyl-6,7-dihydro-5H-benzo[5,6][1,4]diazepino[7,1-a]indole-10-carboxylic acid dihydrochloride], the IC50 was under 100 nM.

CCC1COCCN1CCN1CCn2c(c(C3CCCCC3)c3ccc(C(=O)O)cc32)-c2ccc(C)cc21 (centres unmarked) [Example 1-292, 13-cyclohexyl-5-[2-(3-ethylmorpholin-4-yl)ethyl]-3-methyl-6,7-dihydro-5H-benzo[5,6][1,4]diazepino[7,1-a]indole-10-carboxylic acid dihydrochloride] gave an IC50 of under 100 nM.

Compound COCC1CCCN(CCN2CCn3c(c(C4CCCCC4)c4ccc(C(=O)O)cc43)-c3ccc(Cl)cc32)C1 (centres unmarked) [Example 1-293, 3-chloro-13-cyclohexyl-5-[2-(3-methoxymethylpiperidin-1-yl)ethyl]-6,7-dihydro-5H-benzo[5,6][1,4]diazepino[7,1-a]indole-10-carboxylic acid dihydrochloride] has an IC50 of under 100 nM.

COCC1CCCN(CCN2CCn3c(c(C4CCCCC4)c4ccc(C(=O)O)cc43)-c3ccc(C)cc32)C1 (centres unmarked) [Example 1-294, 13-cyclohexyl-5-[2-(3-methoxymethylpiperidin-1-yl)ethyl]-3-methyl-6,7-dihydro-5H-benzo[5,6][1,4]diazepino[7,1-a]indole-10-carboxylic acid dihydrochloride] was tested, and the IC50 (25° C., 90 min, [5,6-3H]UTP incorporation into RNA, read-out: HCV polymerase inhibitory activity IC50) was under 100 nM.

With CCc1ccc2c(c1)N(CCN1CCCCC1)CCn1c-2c(C2CCCCC2)c2ccc(C(=O)O)cc21 [Example 1-295, 13-cyclohexyl-3-ethyl-5-[2-(piperidin-1-yl)ethyl]-6,7-dihydro-5H-benzo[5,6][1,4]diazepino[7,1-a]indole-10-carboxylic acid dihydrochloride] the IC50 was under 100 nM.

With CC(C)c1ccc2c(c1)N(CCN1CCCCC1)CCn1c-2c(C2CCCCC2)c2ccc(C(=O)O)cc21 [Example 1-296, 13-cyclohexyl-3-isopropyl-5-[2-(piperidin-1-yl)ethyl]-6,7-dihydro-5H-benzo[5,6][1,4]diazepino[7,1-a]indole-10-carboxylic acid dihydrochloride] the IC50 was under 100 nM.

For CSc1ccc2c(c1)N(CCCN1CCCCC1)CCn1c-2c(C2CCCCC2)c2ccc(C(=O)O)cc21 [Example 1-297, 13-cyclohexyl-3-methylsulfanyl-5-[3-(piperidin-1-yl)propyl]-6,7-dihydro-5H-benzo[5,6][1,4]diazepino[7,1-a]indole-10-carboxylic acid dihydrochloride], the IC50 was under 100 nM.

For Cc1ccc2c(c1)N(CCCN1CCCCC1)CCn1c-2c(C2CCCCC2)c2ccc(C(=O)O)cc21 [Example 1-298, 13-cyclohexyl-3-methyl-5-[3-(piperidin-1-yl)propyl]-6,7-dihydro-5H-benzo[5,6][1,4]diazepino[7,1-a]indole-10-carboxylic acid dihydrochloride], the IC50 was under 100 nM.

In the case of Cc1ccc2c(c1)N(CCCN1CCCC1)CCn1c-2c(C2CCCCC2)c2ccc(C(=O)O)cc21 [Example 1-299, 13-cyclohexyl-3-methyl-5-[3-(pyrrolidin-1-yl)propyl]-6,7-dihydro-5H-benzo[5,6][1,4]diazepino[7,1-a]indole-10-carboxylic acid dihydrochloride], the IC50 is reported as under 100 nM.

For Cc1ccc2c(c1)N(CCCN1CCCCCC1)CCn1c-2c(C2CCCCC2)c2ccc(C(=O)O)cc21 [Example 1-300, 5-[3-(azepan-1-yl)propyl]-13-cyclohexyl-3-methyl-6,7-dihydro-5H-benzo[5,6][1,4]diazepino[7,1-a]indole-10-carboxylic acid dihydrochloride], the IC50 was under 100 nM.

With Cc1ccc2c(c1)N(CCCN(C)C)CCn1c-2c(C2CCCCC2)c2ccc(C(=O)O)cc21 [Example 1-301, 13-cyclohexyl-5-(3-dimethylaminopropyl)-3-methyl-6,7-dihydro-5H-benzo[5,6][1,4]diazepino[7,1-a]indole-10-carboxylic acid dihydrochloride] the IC50 was under 100 nM.

Compound CCN(CC)CCCN1CCn2c(c(C3CCCCC3)c3ccc(C(=O)O)cc32)-c2ccc(Cl)cc21 [Example 1-302, 3-chloro-13-cyclohexyl-5-(3-diethylaminopropyl)-6,7-dihydro-5H-benzo[5,6][1,4]diazepino[7,1-a]indole-10-carboxylic acid dihydrochloride] has an IC50 of under 100 nM.

CSc1ccc2c(c1)N(CCN1CCCC1)CCn1c-2c(C2CCCCC2)c2ccc(C(=O)O)cc21 [Example 1-303, 13-cyclohexyl-3-methylsulfanyl-5-[2-(pyrrolidin-1-yl)ethyl]-6,7-dihydro-5H-benzo[5,6][1,4]diazepino[7,1-a]indole-10-carboxylic acid dihydrochloride] gave an IC50 of under 100 nM.

Work on COCC1CCCCN1CCN1CCn2c(c(C3CCCCC3)c3ccc(C(=O)O)cc32)-c2ccc(Cl)cc21 (centres unmarked) [Example 1-304, 3-chloro-13-cyclohexyl-5-[2-(2-methoxymethylpiperidin-1-yl)ethyl]-6,7-dihydro-5H-benzo[5,6][1,4]diazepino[7,1-a]indole-10-carboxylic acid dihydrochloride] yielded an IC50 of under 100 nM.

In the case of COCC1CCCCN1CCN1CCn2c(c(C3CCCCC3)c3ccc(C(=O)O)cc32)-c2ccc(C)cc21 (centres unmarked) [Example 1-305, 13-cyclohexyl-5-[2-(2-methoxymethylpiperidin-1-yl)ethyl]-3-methyl-6,7-dihydro-5H-benzo[5,6][1,4]diazepino[7,1-a]indole-10-carboxylic acid dihydrochloride], the IC50 is reported as under 100 nM.

COCCC1CCCN(CCN2CCn3c(c(C4CCCCC4)c4ccc(C(=O)O)cc43)-c3ccccc32)C1 (centres unmarked) [Example 1-306, 13-cyclohexyl-5-{2-[3-(2-methoxyethyl)piperidin-1-yl]ethyl}-6,7-dihydro-5H-benzo[5,6][1,4]diazepino[7,1-a]indole-10-carboxylic acid dihydrochloride] gave an IC50 of under 100 nM.
